Experiments:
Test in all cases: relative viability (nuclei count vs DMSO), 5 days (fraction); higher = more cells survive
[1] = compound: C1CNCCC1C2=CC(=NN2)C3=CC=NC=C3 + COc1cc2c(Oc3ccc(NC(=O)C4(C(=O)Nc5ccc(F)cc5)CC4)cc3F)ccnc2cc1OCCCN1CCOCC1 [Foretinib] (partner 0.25 µM)
In short: (§1)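 Lung cancer cell lines were seeded in 1536-well plates and dosed by pin tool the next day, with either a single drug or a fixed anchor-drug dose combined with five library-drug doses (not always all listed) spaced in √10 steps. Five days later, one step fixed the cells and stained their nuclei (final 0.05% Triton X-100, 1% formaldehyde, 1 ug/ml Hoechst), and nuclei were counted on 4× images. Relative viability is the nuclei count in treated wells divided by the count in vehicle wells, and each value is the median of duplicate plates.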

[2] = compound: C[C@@H](N)c1ccc(C(=O)Nc2ccnc3[nH]ccc23)cc1 + CC1(C)CCC(c2ccc(Cl)cc2)=C(CN2CCN(c3ccc(C(=O)NS(=O)(=O)c4ccc(N[C@H](CCN5CCOCC5)CSc5ccccc5)c(S(=O)(=O)C(F)(F)F)c4)cc3)CC2)C1 [Navitoclax] (partner 0.5 µM)
In short: as §1

[3] = compound: O[C@H]1CC[C@H](Nc2ncc3nc(Nc4c(F)cc(F)cc4F)n([C@H]4CCOC4)c3n2)CC1 [Tanzisertib] + CC(=O)Nc1cccc(-n2c(=O)n(C3CC3)c(=O)c3c(Nc4ccc(I)cc4F)n(C)c(=O)c(C)c32)c1 [Trametinib] (partner 0.02 µM)
In short: as §1

[4] = compound: C[C@@H](N)c1ccc(C(=O)Nc2ccnc3[nH]ccc23)cc1 + Cc1nc(NC(=O)N2CCC[C@H]2C(N)=O)sc1-c1ccnc(C(C)(C)C(F)(F)F)c1 [Alpelisib] (partner 2 µM)
In short: as §1

Cell Line | relative viability ([1]; first compound 0.08 µM) | relative viability ([1]; first compound 0.8 µM) | relative viability ([1]; first compound 2.53 µM) | relative viability ([1]; first compound 8 µM) | relative viability ([2]; first compound 0.04 µM) | relative viability ([2]; first compound 0.1265 µM) | relative viability ([2]; first compound 0.4 µM) | relative viability ([2]; first compound 1.265 µM) | relative viability ([2]; first compound 4 µM) | relative viability ([3]; first compound 0.08 µM) | relative viability ([3]; first compound 0.253 µM) | relative viability ([3]; first compound 0.8 µM) | relative viability ([3]; first compound 2.53 µM) | relative viability ([3]; first compound 8 µM) | relative viability ([4]; first compound 0.04 µM) | relative viability ([4]; first compound 0.1265 µM) | relative viability ([4]; first compound 0.4 µM) | relative viability ([4]; first compound 1.265 µM) | relative viability ([4]; first compound 4 µM)
NCI-H2126 | 1.18 | 1.31 | 1.23 | 1.29 | 0.885 | 0.824 | 0.908 | 0.885 | 0.816 | 0.56 | 0.597 | 0.611 | 0.546 | 0.59 | 0.828 | 0.795 | 0.79 | 0.82 | 0.881
NCI-H2170 | 0.897 | 0.974 | 1 | 1.01 | 0.682 | 0.564 | 0.57 | 0.61 | 0.479 | 0.989 | 0.965 | 0.927 | 0.926 | 0.874 | 0.879 | 0.436 | 0.765 | 0.833 | 0.627
NCI-H2228 | 0.871 | 0.929 | 0.939 | 0.911 | 0.897 | 1.08 | 1.03 | 0.985 | 0.963 | 0.581 | 0.34 | 0.806 | 0.362 | 0.259 | 0.822 | 0.824 | 0.934 | 0.766 | 1.01
NCI-H2347 | 1.21 | 0.742 | 0.805 | 1.25 | 0.806 | 0.86 | 0.846 | 0.89 | 0.752 | 0.256 | 0.255 | 0.261 | 0.259 | 0.29 | 1.02 | 0.976 | 1.2 | 1.05 | 0.845
